This note sets out measurements from US20100298300A1, “TRIAZOLOPYRAZINE COMPOUNDS USEFUL FOR THE TREATMENT OF DEGENERATIVE & INFLAMMATORY DISEASES” (priority 2006, published 2010).

The target in experiment [1] is T1, MAPKAPK5 (Homo sapiens, UniProt Q8IW41).
T1 sequence (Q8IW41 1-471 isoform Q8IW41-2): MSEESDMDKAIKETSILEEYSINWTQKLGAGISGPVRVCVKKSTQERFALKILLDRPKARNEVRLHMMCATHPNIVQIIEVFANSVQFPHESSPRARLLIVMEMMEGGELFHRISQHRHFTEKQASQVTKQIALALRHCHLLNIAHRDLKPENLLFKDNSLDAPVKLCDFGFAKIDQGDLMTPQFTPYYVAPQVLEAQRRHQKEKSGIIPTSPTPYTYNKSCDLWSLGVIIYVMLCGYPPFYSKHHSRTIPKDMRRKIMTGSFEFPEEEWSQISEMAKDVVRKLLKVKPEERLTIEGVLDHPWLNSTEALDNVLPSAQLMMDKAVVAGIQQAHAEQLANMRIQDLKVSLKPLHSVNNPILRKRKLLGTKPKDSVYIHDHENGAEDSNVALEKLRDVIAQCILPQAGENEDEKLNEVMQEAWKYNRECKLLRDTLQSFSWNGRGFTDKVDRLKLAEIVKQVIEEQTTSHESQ
As to the kind of experiment: MAPKAP-K5 assay (FlashPlate kinase assay).
Description: MAPKAP-K5 reactions are performed in FlashPlate format using 0.1 or 0.2 μCi 33P-ATP; 0.6 μM ATP; 1 mU MAPKAP-K5; 3 μM MAPKAP-K5 peptide substrate, incubated at room temperature for 30 minutes.
The MAPKAP-K5 kinase reaction is performed in a 384 well polypropylene plate (Matrix Technologies) and then transferred to a streptavidin-coated 384 well flashplate (Perkin-Elmer).
To wells containing 2 μL test compound or standard inhibitor, 13 μL Enzyme mix or diluent are added using a Hydra (Robbins Scientific).
Reactions are started by addition of 10 μL of [2,5×] substrate cocktail using a Multidrop (Thermo-Labsystems), to give final concentrations in the assay of:
Plates are incubated at room temperature for 30 minutes.
Reactions are terminated by the addition of 25 μL EDTA (50 mM) to each well using a Micro-fill (Biotek).
Reactions are transferred to a streptavidin-coated flashplate using a Zymark robotic system. Plates are incubated for 60 minutes at room temperature.
All wells are washed 3 times with 100 μl phosphate buffered saline using a Tecan plate washer.
Radioactivity is determined by scintillation counting of the flashplate (empty wells) on a Packard TopCount.
Enzyme Mix: • Enzyme • 50 mM Tris Hcl (pH 7.5) • 0.1 mM EGTA • 2 mM DTT • 1 mg/mL BSA
Reaction Buffer: • 50 mM Tris Hcl (pH 7.5) • 0.1 mM EGTA • 10 mM Magnesium acetate • 2 mM DTT

Experiment [2] has as its system TNFα release by human PBMCs. Kind of experiment: Cytokine release by LPS stimulated human PBMCs (TNFα ELISA). In kind it is cell-based. The following applies: PBMC, 24 h, Table 5, LPS 1 μg/mL. On the procedure: For the assay PBMCs are seeded at 2.5E6 cells/mL in 160 μL in 96-well plates (Nunc). Serial dilution of the test compounds are made first in DMSO (Sigma) and then diluted 50-fold in M199 medium (Gibco) containing 1% heat-inactivated FBS. Compounds are further 1/10 diluted in the assay plates to obtain final DMSO concentration of 0.2%. Cells are preincubated with the compounds for 1 hr at 37° C., 5% CO2. Then, cells are stimulated with LPS (Escherichia coli serotype 026:B6, Cat. No. L2654, Sigma) that is added in a volume of 20 μL to a final concentration of 1 μg/mL and cells are further cultured for 24 hr. The plates are centrifuged and the supernatant is collected and stored at −80° C. until analysis of appropriate dilutions in ELISAs.
After 4 hr incubation at RT, blocking buffer is removed and plates are washed once with PBST (1×PBS with 0.05% Tween-20 (Sigma)). Then, 40 μL of sample is transferred to the ELISA plates and plates are incubated at 4° C. […] After 2 h of incubation at RT, plates are washed as described above and 35 μL/well of a 1/2000 dilution of streptavidin-HRP conjugate (Cat. No. SNN2004, Biosource) in buffer D is added. After 45 min, plates are washed as described above and incubated for 5 min with 50 μL/well BM Chemiluminescence ELISA Substrate POD (Roche). Readout is performed on the Luminoscan Ascent Luminometer (Labsystems) with an integration time of 100 msec delivering raw data (RLU: relative luminescence units). The following controls are included in the experiments, a maximal signal control, in which the cells are activated by LPS but only the 0.2% DMSO vehicle (and thus no compound) is added. […] A minimal signal control is also included in these experiments. Here, cells are not triggered. […] Where compounds are tested at 8 concentrations (1/3 serial dilution), EC50-values can be calculated by curve fitting of the means of the PIN data achieved for a compound at each test concentration.
On the technique in general: In an ELISA, binding on a coated surface is turned into a signal by an enzyme label.

Experiment [3] concerns MMP1 expression by activated primary synovial fibroblasts. As to the kind of experiment: 'MMP assay': MMP1 expression by complex trigger activated synovial fibroblasts (MMP1 ELISA). In kind it is cell-based. The following applies: Homo sapiens, Fibroblast, RASFs, complex trigger, 48 hrs, MMP1 ELISA.

Some results are limits rather than exact numbers.

Regarding `CC(C)N1CCN(c2ccc(Nc3ncc(-c4ccc5c(c4)CNC5=O)n4ncnc34)cc2)CC1` [Compound 36, 5-(8-(4-(4-Isopropylpiperazin-1-yl)phenylamino)-[1,2,4]triazolo[1,5-a]pyrazin-5-yl)isoindolin-1-one], the IC50 (usually the midpoint of a concentration-inhibition curve) in experiment [1] was in the range of 0.001 to 0.1 µM. In addition, the EC50 – broadly, the concentration that produces a half-maximal response – was > 1 µM in experiment [2] and 0.101 to 0.5 µM in experiment [3] (Table 3).
Consider `NC(=O)c1cc(-c2cnc(Nc3ccc(N4CCOCC4)cc3)c3ncnn23)cs1` [Compound 15, 4-[8-(4-Morpholin-4-yl-phenylamino)-[1,2,4]triazolo[1,5-a]pyrazin-5-yl]-thiophene-2-carboxylic acid amide], for which the IC50 in experiment [1] was 0.101 to 0.5 µM. Moreover, the 50% effective concentration (EC50) was 0.501 to 1 µM in experiment [2] and 0.101 to 0.5 µM in experiment [3] (Table 3).
`O=C1NCc2cc(-c3cnc(NC4CCCC4)c4ncnn34)ccc21` [Compound 181] displayed an IC50 in experiment [1] of 0.101 to 0.5 µM. The EC50 in experiment [2] and in experiment [3] (Table 3) was > 1 µM each time.
`NC(=O)c1cc(-c2cnc(Nc3ccc(N4CCN(CC(F)(F)F)CC4)nc3)c3ncnn23)cs1` [Compound 56, 4-(8-{6-[4-(2,2,2-Trifluoroethyl)piperazin-1-yl]-pyridin-3-ylamino}-[1,2,4]triazolo[1,5-a]pyrazin-5-yl)thiophene-2-carboxylic acid amide] showed a half-inhibitory concentration (IC50) in experiment [1] of 0.501 to 1 µM. The EC50 is > 1 µM in experiment [2] and 0.501 to 1 µM in experiment [3] (Table 3).
Regarding `CNC(=O)c1nc(-c2cnc(Nc3ccc(N4CCOCC4)cc3)c3ncnn23)cs1` [Compound 73, 4-[8-(4-Morpholin-4-yl-phenylamino)-[1,2,4]triazolo[1,5-a]pyrazin-5-yl]-thiazole-2-carboxylic acid methylamide], in experiment [1], the concentration for half-maximal inhibition (IC50) was > 1 µM. In addition, the EC50 in experiment [2] and in experiment [3] (Table 3) was > 1 µM throughout.
In the case of `CN1CCN(c2ccc(Nc3ncc(-c4cn[nH]c4)n4ncnc34)cc2)CC1` [Compound 2], the IC50 in experiment [1] is > 1 µM. Also, the EC50 in experiment [2] and in experiment [3] (Table 3) was > 1 µM in each case.
As for `Fc1cc(N2CCOCC2)ccc1Nc1ncc(-c2cn[nH]c2)n2ncnc12` [Compound 67, N-(2-Fluoro-4-morpholinophenyl)-5-(1H-pyrazol-4-yl)-[1,2,4]triazolo[1,5-a]pyrazin-8-amine], the IC50 in experiment [1] is > 1 µM. Moreover, the EC50 in experiment [2] and in experiment [3] (Table 3) was > 1 µM each time.
For `NC(=O)c1cc(-c2cnc(Nc3ccc(N4CCN(CC(F)(F)F)CC4)cc3)c3ncnn23)cs1` [Compound 57, 4-(8-{4-[4-(2,2,2-Trifluoroethyl)piperazin-1-yl]-phenylamino}-[1,2,4]triazolo[1,5-a]pyrazin-5-yl)thiophene-2-carboxylic acid amide], the IC50 in experiment [1] was in the range of 0.101 to 0.5 µM. Moreover, the values for the EC50 in experiment [2] and in experiment [3] (Table 3) were > 1 µM and 0.101 to 0.5 µM, respectively.
In the case of `Fc1cc(Nc2ncc(-c3cn[nH]c3)n3ncnc23)ccc1N1CCOCC1` [Compound 17, (3-Fluoro-4-morpholinophenyl)-5-(1H-pyrazol-4-yl)-[1,2,4]triazolo[1,5-a]pyrazin-8-amine], the IC50 in experiment [1] is > 1 µM. In addition, the EC50 in experiment [2] and in experiment [3] (Table 3) was > 1 µM in each case.
In the case of `FC(F)(F)CN1CCN(c2ccc(Nc3ncc(-c4cn[nH]c4)n4ncnc34)cn2)CC1` [Compound 44, [5-(1H-Pyrazol-4-yl)-[1,2,4]triazolo[1,5-a]pyrazin-8-yl]-{6-[4-(2,2,2-trifluoroethyl)piperazin-1-yl]pyridin-3-yl}amine], in experiment [1], the IC50 is > 1 µM. The EC50 in experiment [2] and in experiment [3] (Table 3) was > 1 µM each time.
With `c1nc2c(Nc3ccc(N4CCOCC4)cc3)ncc(-c3ccc4ncsc4c3)n2n1` [Compound 66], the IC50 in experiment [1] was > 1 µM. The values for the EC50 in experiment [2] and in experiment [3] (Table 3) were > 1 µM and 0.501 to 1 µM, respectively.
On to `CC1(C)OCC(CNC(=O)c2ccc(Nc3ncc(-c4cn[nH]c4)n4ncnc34)cc2)O1` (stereo not shown) [Compound 161], for which the IC50 in experiment [1] is 0.501 to 1 µM. The EC50 in experiment [3] (Table 4) is > 1 µM.
`O=C(c1ccc(Nc2ncc(-c3cn[nH]c3)n3ncnc23)cc1)N1CCN(c2ccccn2)CC1` [Compound 148]: the IC50 in experiment [1] fell in the range of 0.501 to 1 µM. Also, in experiment [3] (Table 4), the EC50 is > 1 µM.
